Reference: the Bradley open melting point set (2014)
Where “and” joins values, the source holds several entries; their conditions need not be identical. Identical values can stand only once. Counter-ions that a name gives are not always drawn.

melting point	Compound
9 °C	CCOC(=O)c1cccnc1 [ethyl nicotinate]
-96 °C	C1CCSC1 [tetrahydrothiophene]
76 °C	CCSc1nnn[nH]1 [5-(ethylthio)-1h-tetrazole]
-76 °C	CCCCC(CC)CO (configuration not stated) [2-ethyl-1-hexanol]
157 °C	O=C(O)c1ccccc1O [salicylic acid]
164 °C	OB(O)c1cccc(C(F)(F)F)c1 [3-(trifluoromethyl)benzeneboronic acid]
179 °C	O=c1cc(C(F)(F)F)c2ccc(O)cc2o1 [7-hydroxy-4-(trifluoromethyl)coumarin]
114 °C	COc1c(F)cc(F)cc1B(O)O [3,5-difluoro-2-methoxybenzeneboronic acid]
214 °C	C[C@]12CCC(=O)C=C1CC[C@@H]1[C@@H]2[C@@H](O)C[C@@]2(C)[C@H]1CC[C@]2(O)C(=O)CO [hydrocortisone]
165 °C	CNC1=CC2=NC(OC)=CC2=CC1 [2-methoxy-N-methyl-1H-indol-6-amine]
217 °C	O=C(O)/C=C/c1ccc(F)cc1F [trans-2,4-difluorocinnamic acid]
37 °C	CCCCCCCCCCNCCCCCCCCCC [di-n-decylamine]
104 °C	CCCC(=O)NNc1ccccc1 [N'-phenylbutanehydrazide]
158 °C	O=C(O)CCc1nc(-c2ccccc2)c(-c2ccccc2)o1 [Oxaprozin]
123 °C	O=C(O)c1ccccc1 [benzoic_acid]
127 °C	O=C1OC(c2ccccc2)(c2ccccc2)C=C1O [3-hydroxy-5,5-diphenylfuran-2(5H)-one]
99 °C	c1ccc2c(c1)ccc1ccccc12 [phenanthracene]
134 °C	O=C(O)c1ccccc1Nc1cccc(C(F)(F)F)c1 [flufenamic acid]
7 °C	CCCCCCCCCCO [Decan-1-ol]

melting point	Compound
127 °C	O=C(/C=C/c1ccc(-c2ccc(Cl)cc2)o1)c1ccccc1 [(2E)-3-[5-(4-Chlorophenyl)-2-furyl]-1-phenylprop-2-en-1-one]
103 °C	NS(=O)(=O)Cc1ccccc1 [alpha-toluenesulfonamide]
-94 °C	CCOC(C)(C)C [tert-butyl ethyl ether]
100 °C	CCc1c(C)[nH]c2ccc(N(C)C)cc12 [medmain]
120 °C	CC(C)(C)NCC(O)c1cc(O)cc(O)c1 (configuration not stated) [Terbutaline]
199 °C	c1ccc2c(c1)c1ccccc1c1ccccc21 [triphenylene]
86 °C	CCCCc1ccc(/N=N/c2ccc(OC(=O)CC)cc2)cc1 [4-[(E)-(4-butylphenyl)diazenyl]phenyl propanoate]
145 °C	OC[C@H]1O[C@@H](O)[C@H](O)[C@H](O)[C@@H]1O [beta-D-allose]
45 °C	O=C(/N=N/C(=O)OCc1ccccc1)OCc1ccccc1 [dibenzyl azodicarboxylate]
168 °C	Nc1cc(Cl)c(O)c(Cl)c1 [4-Amino-2,6-dichlorophenol]
101 °C	Cc1ccc(-c2ccc(/C=C/C(=O)c3ccccc3)o2)cc1 [(2E)-3-[5-(4-Methylphenyl)-2-furyl]-1-phenylprop-2-en-1-one]
268 °C	Cc1cc(-c2ccc(NC=O)c(C)c2)ccc1NC=O [N,N'-(3,3'-dimethylbiphenyl-4,4'-diyl)diformamide]
102 °C	Nc1ccccc1N [o-phenylenediamine]
149 °C	NC(=O)NCc1ccccc1 [benzylurea]
72 °C	CN(C)c1cccc2c(S(=O)(=O)Cl)cccc12 [dansyl chloride]
133 °C	COc1ccc(B(O)O)cn1 [6-methoxypyridine-3-boronic acid]
32 °C	CC(C)(O)CCc1ccccc1 [4-phenyl-2-methyl-2-butanol]
175 °C	N#Cc1coc2ccccc2c1=O [chromone-3-carbonitrile]
114 °C	COC(=O)c1ccc(N)cc1 [Methyl 4-aminobenzoate]

melting point	Compound
14 °C	CCCCCCCCNCCCCCCCC [N-Octyloctan-1-amine]
160 °C	CC(=O)OCC1=C(C(=O)O)N2C(=O)[C@@H](NC(=O)Cc3cccs3)[C@H]2SC1 [Cefalotin]
147 °C	O=C(O)CCC(=O)c1ccc(Br)cc1 [3-(4-bromobenzoyl)propionic acid]
49 °C	CCOC(N)=O [ethyl carbamate]
-84 °C	CCOC(C)=O [Ethyl acetate]
100 °C	c1ccc2c(c1)ccc1ccccc12 [Phenanthrene]
191 °C	O=C(O)[C@H]1CCCC[C@H]1C(=O)O [cis-1,2-cyclohexanedicarboxylic acid]
114 °C	COc1cc(CO)ccc1O [4-hydroxy-3-methoxybenzyl alcohol]
159 °C	COC(=O)CCC(C)C1CCC2C3C(OC(C)=O)C(Br)C4CCCCC4(C)C3CCC12C (configuration not stated) [methyl 7-(acetyloxy)-6-bromocholan-24-oate]
36 °C	CC(C)OP(=O)(CCP(=O)(OC(C)C)OC(C)C)OC(C)C [tetraisopropyl 1,2-ethylenediphosphonate]
44 °C	CCCCCCCCCCCC(=O)O [dodecanoic acid]
66 °C	CCCCCCc1ccc(O)cc1O [4-n-hexylresorcinol]
-109 °C	COC(C)(C)C [tert-butyl methyl ether]
0 °C	COc1cccc(N)c1 [m-anisidine]
25 °C	CC(O)C(C)O (configuration not stated) [Butane-2,3-diol]
122 °C	O=C(O)c1ccccc1 [Benzoic acid]
17 °C	O=C(O)C1CC=CCC1 (configuration not stated) [3-cyclohexene-1-carboxylic acid]
258 °C	NCC(=O)NCC(=O)O [Glycylglycine]
-100 °C	COC=O [Methyl formate]

Further lines, the compound ahead of its results:

Compound	melting point
NCCc1ccc(-c2ccccc2)cc1 [2-(4-biphenylyl)ethylamine]	52 °C
CCCCOCCO [2-Butoxyethanol]	-75 °C
COc1ccc(/C=C/C(=O)O)c(Cl)c1OC [2-chloro-3,4-dimethoxycinnamic acid]	195 °C
O=C(O)COc1ccccc1Cl [2-chlorophenoxyacetic acid]	150 °C
OB(O)c1ccnc(Cl)c1Cl [2,3-dichloropyridine-4-boronic acid]	137 °C
COc1cc(Cl)c(Cl)c(Cl)c1Cl [1-methoxy-2,3,4,5-tetrachlorobenzene]	88 °C
Cc1ccc(N=Nc2c(O)ccc3ccccc23)c([N+](=O)[O-])c1 [1-[(4-Methyl-2-nitrophenyl)diazenyl]-2-naphthol]	271 °C
CCCCCCCCCCCCCCCCCl [1-chlorohexadecane]	9 °C
CCC1(c2ccccc2)C(=O)NC(=O)NC1=O [phenobarbital]	174 °C and 176 °C
CCCCCCCCN [1-aminooctane]	0 °C
O=[N+]([O-])c1ccc(O)c([N+](=O)[O-])c1 [2,4-dinitrophenol]	108 °C
Cc1ccc(/C=C(/C#N)c2nc(-c3ccccc3)cs2)cc1	79 °C
O=C1c2ccccc2C(=O)c2c(Cl)cccc21 [1-chloroanthraquinone]	160 °C
CN(C)C(=O)Nc1ccc(Cl)cc1 [monuron]	172 °C and 174 °C
COc1cc2c(c(OC)c1OC)-c1ccc(OC)c(=O)cc1[C@@H](NC(C)=O)CC2 [Colchicine]	156 °C
C=CCCl [allyl chloride]	-135 °C
COC(=O)c1ccccc1C(=O)OC [dimethyl phthalate]	5 °C
CCCCCCCl [1-Chlorohexane]	-94 °C
c1ccc(-c2ccc(-c3ccccc3)cc2)cc1 [p-terphenyl]	214 °C
Sc1ccccc1 [thiophenol]	-15 °C
Clc1ccccc1C(Cl)(Cl)Cl [2-chlorobenzotrichloride]	30 °C
O=C1C=CCCC1 [2-cyclohexen-1-one]	-53 °C
[C-]#[N+]CS(=O)(=O)c1ccc(C)cc1 [p-toluenesulfonylmethyl isocyanide]	112 °C

Compound	melting point
Cc1cc(C)c(C(=O)O)c(C)c1 [2,4,6-trimethylbenzoic acid]	154 °C
Cc1cc(Br)c(C)cc1Br [2,5-Dibromo-p-xylene]	74 °C
COc1cc(/C=C/C(=O)c2ccccc2O)ccc1O	129 °C (2×) and 128 °C
O=C(O)C(Cl)(Cl)Cl [trichloroacetic acid]	57.5 °C
Cl/C=C/Cl [(E)-1,2-Dichloroethene]	-50 °C
CCC1(CCC(C)C)C(=O)NC(=O)NC1=O [amobarbital]	157 °C
Oc1c(Cl)cccc1Cl [2,6-Dichlorophenol]	68.5 °C
Cl/C(Cl)=C/C3C(C(=O)OCc2cccc(Oc1ccccc1)c2)C3(C)C (configuration not stated)	34 °C
ClC(Cl)C(Cl)(Cl)Cl [pentachloroethane]	-29 °C
CC(=O)c1c(C)c(C)c(C)c(C)c1C [2',3',4',5',6'-pentamethylacetophenone]	86 °C
O=C(O)c1cc(C(=O)O)cc(C(=O)O)c1 [1,3,5-benzenetricarboxylic acid]	375 °C
NC(=O)c1c(Cl)cccc1Cl [2,6-dichlorobenzamide]	199 °C
BrC(Br)c1ccccc1C(Br)Br [alpha,alpha,alpha',alpha'-tetrabromo-o-xylene]	116 °C
Oc1cccc(Cl)c1Cl [2,3-dichlorophenol]	59 °C
Cc1ccc(C)o1 [2,5-dimethylfuran]	-62 °C
CCCCc1ccc(O)cc1 [4-n-butylphenol]	22 °C
CC1(c2ccccc2)C(=O)NC(=O)NC1=O [heptobarbital]	228 °C
O=C(CCCN1CCC(n2c(=O)[nH]c3ccccc32)CC1)c1ccc(F)cc1 [benperidol]	171 °C
C=CCBr [allyl bromide]	-119 °C
CCNc1nc(Cl)nc(NC(C)C)n1 [atrazine]	175 °C and 177 °C
O=S1(=O)CCCO1 [1,3-propanesultone]	32 °C
CC(=O)Oc1ccc(CC#N)cc1 [p-acetoxy_phenylacetonitrile]	50 °C
